Source: US20100233278A1, “RAPIDLY DISINTEGRATING SOLID PREPARATION” (priority 2007, published 2010)

Test: dissolution rate of saccharide or sugar alcohol, 6-vessel dissolution tester
Type: physicochemical
Conditions: 2 g in desalted water 500 mL, 37° C., paddle 50 min^−1; rate constant k per surface area
Procedure: In the present invention, the “dissolution rate” is obtained by using a 6-vessel dissolution tester (NTR-6100, Toyama Sangyo Co., Ltd.). The paddle rotation speed was 50 min^−1, and saccharide or sugar alcohol was added by 2 g to desalted water (500 mL), which is a test solution, heated to 37° C. Samples were taken at given time intervals after addition, changes in the dry weight of the samples per unit time were calculated, and dissolution rate constant k was calculated by the Noyes-Whitney equation. The dissolution rate constant k was converted to value per surface area of each saccharide or sugar alcohol and the obtained value was taken as dissolution rate [1/min·m^2]. As the specific surface area, the value measured by a laser diffraction particle size analyzer [Mastersizer] of Malvern Instruments Ltd. was used. The tablets obtained in the Examples and Comparative Examples were measured for hardness, disintegration time in the oral cavity, disintegration time (ODT) by the following test methods. In addition, the dissolution rate of saccharide and sugar alcohol used in the Examples and Comparative Examples was measured. • (1) The hardness was measured by a tablet hardness tester (WHT-2ME, Pharma Test). The test was performed using 3 or 10 tablets, and the average value is shown. • (2) As for the disintegration time in the oral cavity, the tablet of the present invention was placed in the oral cavity of a healthy adult without water, and the time necessary for complete disintegration of the tablet with only saliva was measured. • (3) The disintegration time (ODT) was measured by an Orally Disintegrating Tablet Tester (ODT-101, Toyama Sangyo Co., Ltd.). As for the measurement conditions, a weight (15 g, weight diameter 15 mm) was used at a rotating speed of 50 rpm, and an average of 3 measures was taken. • (4) The “dissolution rate” was measured by using a 6-vessel dissolution tester (NTR-6100, Toyama Sangyo Co., Ltd.). The paddle rotation speed was 50 min^−1, and saccharide or sugar alcohol was added by 2 g to desalted water (500 mL), which is a test solution, heated to 37° C. Samples were taken at given time intervals after addition, changes in the dry weight of the samples per unit time were calculated, and dissolution rate constant k was calculated by the Noyes-Whitney equation. The dissolution rate constant k was converted to value per the surface area of each saccharide or sugar alcohol and the obtained value was taken as dissolution rate [1/min·m^2]. As the specific surface area, the value measured by a laser diffraction particle size analyzer [Mastersizer] of Malvern Instruments Ltd. was used.

SMILES | dissolution rate
OC[C@@H](O)[C@@H](O)[C@H](O)[C@H](O)CO [α-form mannitol] | 4.62 1/min·m^2
OC[C@@H](O)[C@@H](O)[C@H](O)[C@H](O)CO [β-form mannitol] | 2.28 1/min·m^2
OC[C@@H](O)[C@H](O)[C@@H](O)CO [Xylitol] | 3.57 1/min·m^2
OC[C@@H](O)[C@@H](O)CO [Erythritol] | 11.99 1/min·m^2

Results, then the compound that gave them:

dissolution rate | SMILES
5.68 1/min·m^2 | OC[C@H]1O[C@@H](O[C@H]2[C@H](O)[C@@H](O)C(O)O[C@@H]2CO)[C@H](O)[C@@H](O)[C@H]1O (stereo partly drawn) [Lactose]
2.80 1/min·m^2 | OC[C@H]1O[C@@](CO)(O[C@H]2O[C@H](CO)[C@@H](O)[C@H](O)[C@H]2O)[C@@H](O)[C@@H]1O [Purification sucrose]
